Assay results: patent US20050136444A1 (priority 2003, published 2005)
Several values for one entry are separate records, joined by “and”; a condition that tells them apart may be missing. Equal values may be shown once. Entries after “also recorded” stand apart in the source; their conditions may differ. Where a name gives a salt, the structure may show the parent alone. Read-outs that look alike come from different tables or passages of the source.

Columns and labels:
[1] = target: T1, NPFF2 (Homo sapiens, UniProt Q9Y5X5); assay: Receptor Selection and Amplification Technology (R-SAT) functional assay, NPFF2; type: cell-based; conditions: for NPFF2b % Efficacy Mean: Hydrochloride
T1 construct: expressed in transfected cells; host or cells: NIH3T3
T1 sequence (Q9Y5X5 103-522): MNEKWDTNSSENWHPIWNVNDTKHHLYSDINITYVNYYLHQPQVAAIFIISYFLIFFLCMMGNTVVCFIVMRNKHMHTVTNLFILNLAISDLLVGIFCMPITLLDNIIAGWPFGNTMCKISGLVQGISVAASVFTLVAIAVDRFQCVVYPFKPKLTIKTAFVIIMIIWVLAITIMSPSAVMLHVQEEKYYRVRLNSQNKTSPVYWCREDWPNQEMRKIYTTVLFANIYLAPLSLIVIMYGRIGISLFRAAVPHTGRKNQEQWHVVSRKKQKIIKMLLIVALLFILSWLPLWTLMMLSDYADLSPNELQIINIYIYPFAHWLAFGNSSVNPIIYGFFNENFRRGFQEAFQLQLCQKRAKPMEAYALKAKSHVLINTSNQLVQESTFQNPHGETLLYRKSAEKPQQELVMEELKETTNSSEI
Procedure, shortened: (§1)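 NIH3T3 cells transiently transfected for 16-20 h with receptor and β-galactosidase plasmids, then grown with compound for five days at 5% CO2. Functional response read as β-galactosidase activity with ONPG substrate, colorimetric absorbance at 420 nm.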

[2] = system: rats; assay: Observed behaviors / side effects after systemic administration; type: in vivo, rat
Experimental: These behaviors typically precede “barrel-rolling” seizures.
These effects persisted between 15 and 20 minutes. These effects were not observed in rats that received doses less than 10 mg/kg.
These effects persisted between 15 and 20 minutes and were shown by both sham-operated and SNL rats. These effects were not observed in rats that received doses less than 10 mg/kg. [drawing 22]
However, these effects were more robust and of longer duration (60-90 min).
These effects persisted between 60 and 90 minutes and were shown by both sham-operated and SNL rats. These effects were not observed in rats that received doses less than 10 mg/kg. [drawing 23]
A model of neuropathic pain was created in rats by tight ligation of the L5 and L6 spinal nerves. […] Rats were then treated with various doses of dPQR (3, 10 and 30 mg/kg, i.p.) and paw withdrawal thresholds were tested across a period of 3 hours.
A model of neuropathic pain was created in rats by tight ligation of the L5 and L6 spinal nerves. […] Rats were then treated with various doses of Compound 3099 (1, 3 and 10 mg/kg, i.p.) and paw withdrawal thresholds were tested across a period of 3 hours.
In an attempt to increase the efficacy of Compound 3099 in the SNL model, we administered a dose of 30 mg/kg (i.p.) to SNL rats. […] Further, these behaviors were also transient, such that, by the end of the testing period these effects appeared to have resolved.

[3] = system: L5/L6 SNL-induced Tactile Allodynia; assay: L5/L6 SNL-induced Tactile Allodynia; type: in vivo, rat; conditions: for effect on L5/L6 SNL-induced tactile allodynia (paw withdrawal thresholds): various doses; for sensitivity to non-noxious mechanical stimulation in sham-operated rats: 10 mg/kg (1045, 2616), 30 mg/kg (dPQR)
From the text: This model of neuropathic pain was developed by Kim and Chung (Kim S H, Chung J M., “An experimental model for peripheral neuropathy produced by segmental spinal nerve ligation in the rat,” Pain, 1992 September; 50(3):355-63). This model requires the ligation of the L5 and L6 spinal nerves between the spinal cord and the entry point into the sciatic nerve. Seven to fourteen days following SNL surgery rats will be reassessed for their response thresholds to mechanical stimuli. For the assessment of paw withdrawal thresholds rats were allowed to acclimate within plexiglass enclosures for approximately 20 min. A series of calibrated von Frey filaments (1.56-15.0 g, logarithmically spaced) were applied to the plantar aspect of the injured hind paw until a response was elicited. Paw withdrawal thresholds to probing were determined according to a previously described method (Chaplan S R, Bach F W, Pogrel J W, Chung J M, Yaksh T L., “Quantitative assessment of tactile allodynia in the rat paw,” J Neurosci Methods, 1994 July;53(1):55-63). Paw withdrawal thresholds were determined to the nearest 0.1 g before surgery, then before and at multiple time points following compound administration. A significant reduction in the paw withdrawal threshold was interpreted as the presence of tactile allodynia.
In order to study the endogenous activity of the NPFF system following injury to peripheral nerves, the activity of a FF1 receptor antagonist, dPQR, was assessed in a model of neuropathic pain. In this model, the L5 and L6 spinal nerves between the spinal cord and the entry point into the sciatic nerve were ligated (Kim & Chung, 1992). Seven to fourteen days following SNL surgery rats were reassessed for their response thresholds to mechanical stimuli. For the assessment of paw withdrawal thresholds rats were allowed to acclimate within plexiglass enclosures for approximately 20 min. A series of calibrated von Frey filaments (1.56-15.0 g, logarithmically spaced) were applied to the plantar aspect of the injured hind paw until a response was elicited. Paw withdrawal thresholds to probing were determined according to a previously described method (Chaplan et al., 1994). Paw withdrawal thresholds were determined to the nearest 0.1 g before surgery, then before and at multiple time points following compound administration. A significant reduction in the paw withdrawal threshold was interpreted as the presence of tactile allodynia.
A model of neuropathic pain was created in rats by tight ligation of the L5 and L6 spinal nerves. […] Rats were then treated with various doses of Compound 1045 (1, 3 and 10 mg/kg, i.p.) and paw withdrawal thresholds were tested across a period of 2 hours.

[4] = target: NPFF1 (Homo sapiens, UniProt Q9GZQ6); assay: Receptor Selection and Amplification Technology (R-SAT) functional assay, NPFF1; type: cell-based; design: expressed in transfected cells; host or cells: NIH3T3; conditions: for NPFF1 % Efficacy Mean: Hydrochloride
Sequence of NPFF1 (Q9GZQ6 whole entry, species assumed): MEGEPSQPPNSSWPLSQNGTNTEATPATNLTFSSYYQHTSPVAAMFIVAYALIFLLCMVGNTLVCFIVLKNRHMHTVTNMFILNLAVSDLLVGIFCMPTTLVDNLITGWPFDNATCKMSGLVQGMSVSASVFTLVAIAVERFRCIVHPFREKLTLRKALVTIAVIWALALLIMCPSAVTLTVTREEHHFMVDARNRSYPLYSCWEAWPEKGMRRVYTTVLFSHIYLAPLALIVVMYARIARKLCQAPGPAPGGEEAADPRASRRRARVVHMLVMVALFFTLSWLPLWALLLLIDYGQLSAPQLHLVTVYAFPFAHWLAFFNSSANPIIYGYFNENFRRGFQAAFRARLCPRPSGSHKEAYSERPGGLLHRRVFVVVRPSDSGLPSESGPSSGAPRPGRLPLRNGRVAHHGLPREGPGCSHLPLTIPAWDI
Procedure, shortened: as §1

[5] = NPFF2b pEC50 Mean, R-SAT data, Table 2, multiple entries = different batches
[6] = R-SAT data, Table 2, multiple entries = different batches
[7] = R-SAT data, Table 2, multiple entries = different batches, read-out: NPFF2b % Efficacy Mean
[8] = R-SAT data, Table 2, multiple entries = different batches, read-out: NPFF1 % Efficacy Mean
[9] = R-SAT, Table 1, Efficacy is relative to endogenous ligand, read-out: NPFF2 % Efficacy
[10] = R-SAT, Table 1, Efficacy is relative to endogenous ligand, read-out: NPFF1 % Efficacy

SMILES	EC50 [1, 5]	NPFF2b % Efficacy Mean [1, 6]	Emax [1, 7] [%]	side effects at doses less than 10 mg/kg ([2]; rat, in vivo)	side effects observed ([2]; rat, in vivo, ip, 10 mg/kg)	effect on L5/L6 SNL-induced tactile allodynia (paw withdrawal thresholds) ([3]; SNL rats, i.p., Hydrochloride)	NPFF1 % Efficacy Mean [4, 6]	Emax [4, 8] [%]	Emax [1, 9] [%]	Emax [4, 10] [%]	further results
NC(N)=NN=Cc1ccc(-c2ccccc2C(F)(F)F)o1 (racemic) [Compound 2616, 1-[(5-(2-(Trifluoromethyl)phenyl)-furan-2-yl)-methyleneamino]guanidine Hydrochloride]	0.1 µM	80.4% and 72.9%	63	not observed	demonstrated writhing behavior and appeared lethargic	either demonstrate very little efficacy or potentiate tactile allodynia; also recorded: dose-related potentiation of tactile allodynia	66.3% and 52.1%	55			duration of side effects ([2]; rat, in vivo, ip, 10 mg/kg): 60 to 90 min; sensitivity to non-noxious mechanical stimulation in sham-operated rats ([3]; i.p., Hydrochloride): produced tactile allodynia in sham-operated rats; also recorded: significant reduction in the paw withdrawal thresholds of sham-operated rats; EC50 [4]: 0.0398 µM; EC50 ([4]; R-SAT data, Table 2, multiple entries = different batches, read-out: NPFF1 pEC50 Mean (converted)): 1.26 µM and 0.316 µM
NC(N)=N/N=C/c1ccc(Cl)c(Cl)c1 [Compound 1045, 1-(3,4-Dichlorobenzylideneamino)guanidine Hydrochloride]	0.794 µM and 0.501 µM	55.2%	63.8	not observed	demonstrated writhing behavior and appeared lethargic			6.3	64	17	EC50 ([1]; NPFF2 pEC50, R-SAT, Table 1, NA = No activity detectable at the highest dose tested (20 μM)): 0.794 µM; duration of side effects ([2]; SNL rats, 30 mg/kg): 60 to 90 min; new side effects noted ([2]; rat, in vivo, 30 mg/kg): ptosis, shuffling/stomping and biting of forlimbs and hindlimbs; efficacy against SNL-induced tactile allodynia at 30 mg/kg ([3]; SNL rats, 30 mg/kg): initially efficacious at the 30 min time-point; paw withdrawal thresholds by 60 min and until the end of the testing session ([3]; SNL rats, 30 mg/kg, suggests potentiation of tactile allodynia): significantly reduced the paw withdrawal thresholds to levels below those obtained in SNL vehicle-treated rats; maximum efficacy, reversal of tactile allodynia ([3]; SNL rats, i.p.): 37.9%; sensitivity to non-noxious mechanical stimulation in sham-operated rats ([3]; i.p.): did not significantly alter sensitivity to non-noxious mechanical stimulation
Cl.N=C(N)N/N=C/c1ccc(Br)c(Br)c1 [Compound 3093, 1-(3,4-Dibromobenzylideneamino)guanidine Hydrochloride]		89.9%	85.3			dose-dependently reverse tactile allodynia; also recorded: dose-related reversal of tactile allodynia	11.7%	10.2	89	11	EC50 ([1]; R-SAT data, Table 2, multiple entries = different batches, read-out: NPFF2b pEC50 Mean (converted)): 0.631 µM and 1.26 µM; EC50 ([1]; R-SAT, Table 1, NA = No activity detectable at the highest dose tested (20 μM), read-out: NPFF2 pEC50 (converted)): 1.58 µM; behaviors observed (typically precede barrel-rolling seizures) ([2]; rat, in vivo, ip, 30 mg/kg): immobility and staring, ataxia, splayed hind limbs, body swaying, lying on one side with spastic limb abduction and body distortions; time of peak effect after administration ([3]; SNL rats, i.p.): 30 min; calculated A50, reversal of tactile allodynia ([3]; SNL rats, i.p., 95% CI): 6.2 mg
